Source: patent US11214594B2, “Antimicrobial peptide having synergistic antibacterial effect with antibiotics on multidrug resistant bacteria, and use thereof” (priority 2016, dated 2022)
Where a SMILES comes first, the peptide text is derived from it. [ ]: non-standard residue; d: D form.

Key:
[1] = tested on: E. coli; assay: microbe, parasite or virus in culture; format: cell-based, Escherichia coli; settings: 16 h
Procedure, shortened: (§1)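 Each strain is brought to 2×10^6 CFU in nutrient-sufficient Mueller-Hinton medium and dispensed into wells. Peptide solutions, stepwise diluted 2:1 in the same medium, are then added. The minimal concentration preventing growth gives the MIC.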

[2] = tested on: MDREC 1229; assay: microbe, parasite or virus in culture; format: cell-based, Escherichia coli
Procedure, shortened: as §1

[3] = tested on: MDREC 1238; format: cell-based, Escherichia coli
Procedure, shortened: as §1

[4] = tested on: P. aeruginosa; assay: microbe, parasite or virus in culture; format: cell-based, Pseudomonas aeruginosa
Procedure, shortened: as §1

[5] = tested on: MDRPA 2002; format: cell-based, Pseudomonas aeruginosa
Procedure, shortened: as §1

[6] = tested on: MDRPA 2003; format: cell-based, Pseudomonas aeruginosa
Procedure, shortened: as §1

[7] = tested on: MDRST 8007; assay: Minimal inhibitory concentration (MIC), single agent; format: cell-based, Salmonella typhimurium; settings: agent alone
Procedure, shortened: as §1

[8] = tested on: B. subtilis; assay: microbe, parasite or virus in culture; format: cell-based, Bacillus subtilis
Procedure, shortened: as §1

[9] = tested on: S. epidermidis; assay: microbe, parasite or virus in culture; format: cell-based, Staphylococcus epidermidis
Procedure, shortened: as §1

[10] = tested on: S. aureus; assay: microbe, parasite or virus in culture; format: cell-based, Staphylococcus aureus
Procedure, shortened: as §1

[11] = tested on: MRSA 3114; format: cell-based, Staphylococcus aureus; settings: 3114
Procedure, shortened: as §1

[12] = tested on: MRSA 3126; format: cell-based, Staphylococcus aureus; settings: 3126
Procedure, shortened: as §1

[13] = tested on: E. coli; assay: MIC of antibiotic during combined treatment with antimicrobial peptide; format: cell-based, Escherichia coli; settings: for Antibiotic MIC, Erythromycin / Antibiotic MIC, Linezolid / Antibiotic MIC, Vancomycin: E. coli
Procedure, shortened: (§2)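 First, antibiotic solution is diluted with MH medium; next, the dilution is dispensed into wells containing peptide; finally, the orientation is swapped and MIC of each mixture determined.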

[14] = tested on: MDREC 1229; assay: as above; format: cell-based, Escherichia coli
Procedure, shortened: (§3)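 Broth microdilution in MH medium; strains were diluted to 2×10^6 CFU per ml before plating. Peptide was serially diluted stepwise at 2:1 starting from its MIC, and MH-diluted antibiotic was then added to determine MIC. The reversed arrangement was also tested.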

[15] = tested on: A. baumannii; assay: as above; format: cell-based, Acinetobacter baumannii; settings: A. baumannii
Procedure, shortened: as §2

[16] = tested on: MDRAB 12035; assay: as above; format: cell-based, Acinetobacter baumannii
Procedure, shortened: as §3

[17] = peptide treatment concentration 1 μg/ml
[18] = peptide treatment concentration 2 μg/ml
[19] = peptide treatment concentration 4 μg/ml
[20] = peptide treatment concentration 6 μg/ml
[21] = peptide treatment concentration 8 μg/ml
[22] = peptide treatment concentration 16 μg/ml
[23] = peptide treatment concentration 32 μg/ml
[24] = peptide treatment concentration 64 μg/ml
[25] = combined with peptide at 1 μg/ml
[26] = combined with peptide at 2 μg/ml
[27] = combined with peptide at 4 μg/ml
[28] = combined with peptide at 6 μg/ml
[29] = combined with peptide at 8 μg/ml
[30] = combined with peptide at 16 μg/ml
[31] = combined with peptide at 32 μg/ml
[32] = combined with peptide at 64 μg/ml

CC[C@H](C)[C@H](NC(=O)[C@H](CCCCN)NC(=O)[C@H](Cc1c[nH]c2ccccc12)NC(=O)[C@@H](N)CCCNC(=N)N)C(=O)N[C@@H](Cc1ccccc1)C(=O)N[C@@H](CCCCN)C(=O)N[C@@H](CCCCN)C(=O)N[C@H](C(=O)N[C@H](CCCCN)C(=O)N[C@@H](CCCCN)C(=O)N[C@@H](CC(C)C)C(=O)N[C@@H](CC(C)C)C(=O)N[C@@H](Cc1c[nH]cn1)C(=O)N[C@@H](CCCCN)C(=O)N[C@@H](C)C(=O)N[C@@H](CCCCN)C(=O)N[C@@H](CCCCN)C(=O)N[C@@H](Cc1c[nH]c2ccccc12)C(N)=O)[C@@H](C)CC [PapMA-18, RWK IFK KIk KLL HKA KKW-NH2] (H-RWKIFKKI[dK]KLLHKAKKW-NH2; N-terminus assumed)
2 µg/mL: Antibiotic MIC, Erythromycin [14, 21] | Antibiotic MIC, Erythromycin [15, 28] | Erythromycin MIC during combined treatment with peptide [16, 21]
1 µg/mL: Antibiotic MIC, Erythromycin ([13]; erythromycin combined with peptide at 6 μg/ml) | Antibiotic MIC, Erythromycin ([13]; erythromycin combined with peptide at 8 μg/ml) | Antibiotic MIC, Erythromycin [14, 22] | Antibiotic MIC, Erythromycin [15, 29]
4 µg/mL: Antibiotic MIC, Linezolid ([13]; linezolid combined with peptide at 32 μg/ml) | Antibiotic MIC, Vancomycin ([13]; vancomycin combined with peptide at 32 μg/ml) | Antibiotic MIC, Erythromycin [14, 20] | Antibiotic MIC, Linezolid [14, 23] | Antibiotic MIC, Vancomycin [14, 23] | Antibiotic MIC, Linezolid [15, 30] | Erythromycin MIC during combined treatment with peptide [16, 20]
0.125 µg/mL: Antibiotic MIC, Erythromycin ([13]; erythromycin combined with peptide at 32 μg/ml)
128 µg/mL: Antibiotic MIC, Erythromycin ([13]; erythromycin combined with peptide at 1 μg/ml) | Antibiotic MIC, Linezolid [15, 26] | Antibiotic MIC, Vancomycin [15, 27] | Vancomycin MIC during combined treatment with peptide [16, 19]
0.5 µg/mL: Antibiotic MIC, Erythromycin [14, 23] | Antibiotic MIC, Erythromycin [15, 30] | Erythromycin MIC during combined treatment with peptide [16, 22]
64 µg/mL: Minimal inhibitory concentration MIC [1] | Minimal inhibitory concentration MIC [2] | Peptide MIC, peptide alone [2] | Minimal inhibitory concentration MIC [3] | Minimal inhibitory concentration MIC [6] | Minimal inhibitory concentration MIC [7] | Antibiotic MIC, Linezolid ([13]; linezolid combined with peptide at 4 μg/ml) | Antibiotic MIC, Linezolid [14, 19] | Antibiotic MIC, Linezolid [15, 27] | Linezolid MIC during combined treatment with peptide [16, 19]
16 µg/mL: Antibiotic MIC, Linezolid ([13]; linezolid combined with peptide at 6 μg/ml) | Antibiotic MIC, Vancomycin ([13]; vancomycin combined with peptide at 8 μg/ml) | Antibiotic MIC, Erythromycin [14, 19] | Antibiotic MIC, Linezolid [14, 21] | Antibiotic MIC, Vancomycin [14, 21] | Antibiotic MIC, Erythromycin [15, 27] | Antibiotic MIC, Linezolid [15, 29] | Antibiotic MIC, Vancomycin [15, 29] | Antibiotic MIC, Vancomycin [15, 30] | Erythromycin MIC during combined treatment with peptide [16, 19] | Linezolid MIC during combined treatment with peptide [16, 21] | Vancomycin MIC during combined treatment with peptide [16, 21] | Vancomycin MIC during combined treatment with peptide [16, 22]
0.25 µg/mL: Antibiotic MIC, Erythromycin ([13]; erythromycin combined with peptide at 16 μg/ml)
>128 µg/mL: Minimal inhibitory concentration MIC [8] | Minimal inhibitory concentration MIC [9] | Minimal inhibitory concentration MIC [10] | Minimal inhibitory concentration MIC [11] | Minimal inhibitory concentration MIC [12] | Antibiotic MIC, Linezolid ([13]; linezolid combined with peptide at 1 μg/ml) | Antibiotic MIC, Linezolid ([13]; linezolid combined with peptide at 2 μg/ml) | Antibiotic MIC, Vancomycin ([13]; vancomycin combined with peptide at 1 μg/ml) | Antibiotic MIC, Vancomycin ([13]; vancomycin combined with peptide at 2 μg/ml) | Antibiotic MIC, Vancomycin ([13]; vancomycin combined with peptide at 4 μg/ml) | Antibiotic MIC, Erythromycin [14, 17] | Antibiotic MIC, Linezolid [14, 17] | Antibiotic MIC, Vancomycin [14, 17] | Antibiotic MIC, Linezolid [14, 18] | Antibiotic MIC, Vancomycin [14, 18] | Antibiotic MIC, Vancomycin [14, 19] | Antibiotic MIC, Linezolid [15, 25] | Antibiotic MIC, Vancomycin [15, 25] | Antibiotic MIC, Vancomycin [15, 26] | Linezolid MIC during combined treatment with peptide [16, 17] | Vancomycin MIC during combined treatment with peptide [16, 17] | Linezolid MIC during combined treatment with peptide [16, 18] | Vancomycin MIC during combined treatment with peptide [16, 18]
higher level than the PapMA-1 peptide: Synergistic effect of antibacterial activity with existing antibiotics compared with PapMA-1 ([13]; E. coli and MDREC1229)
0 µg/mL: Antibiotic MIC, Erythromycin ([13]; erythromycin combined with peptide at 64 μg/ml) | Antibiotic MIC, Linezolid ([13]; linezolid combined with peptide at 64 μg/ml) | Antibiotic MIC, Vancomycin ([13]; vancomycin combined with peptide at 64 μg/ml) | Antibiotic MIC, Erythromycin [14, 24] | Antibiotic MIC, Linezolid [14, 24] | Antibiotic MIC, Vancomycin [14, 24] | Antibiotic MIC, Erythromycin [15, 31] | Antibiotic MIC, Linezolid [15, 31] | Antibiotic MIC, Vancomycin [15, 31] | Antibiotic MIC, Erythromycin [15, 32] | Antibiotic MIC, Linezolid [15, 32] | Antibiotic MIC, Vancomycin [15, 32] | Erythromycin MIC during combined treatment with peptide [16, 23] | Linezolid MIC during combined treatment with peptide [16, 23] | Vancomycin MIC during combined treatment with peptide [16, 23] | Erythromycin MIC during combined treatment with peptide [16, 24] | Linezolid MIC during combined treatment with peptide [16, 24] | Vancomycin MIC during combined treatment with peptide [16, 24]
8 µg/mL: Antibiotic MIC, Erythromycin ([13]; erythromycin combined with peptide at 4 μg/ml) | Antibiotic MIC, Linezolid ([13]; linezolid combined with peptide at 8 μg/ml) | Antibiotic MIC, Linezolid ([13]; linezolid combined with peptide at 16 μg/ml) | Antibiotic MIC, Vancomycin ([13]; vancomycin combined with peptide at 16 μg/ml) | Antibiotic MIC, Linezolid [14, 22] | Antibiotic MIC, Vancomycin [14, 22] | Linezolid MIC during combined treatment with peptide [16, 22]
32 µg/mL: Minimal inhibitory concentration MIC [4] | Minimal inhibitory concentration MIC [5] | Antibiotic MIC, Erythromycin ([13]; erythromycin combined with peptide at 2 μg/ml) | Antibiotic MIC, Vancomycin ([13]; vancomycin combined with peptide at 6 μg/ml) | Antibiotic MIC, Erythromycin [14, 18] | Antibiotic MIC, Linezolid [14, 20] | Antibiotic MIC, Vancomycin [14, 20] | Antibiotic MIC, Erythromycin [15, 25] | Antibiotic MIC, Erythromycin [15, 26] | Antibiotic MIC, Linezolid [15, 28] | Antibiotic MIC, Vancomycin [15, 28] | Erythromycin MIC during combined treatment with peptide [16, 17] | Erythromycin MIC during combined treatment with peptide [16, 18] | Linezolid MIC during combined treatment with peptide [16, 20] | Vancomycin MIC during combined treatment with peptide [16, 20]
